The record followed here is patent US20240287063A1, “METHIONINE ADENOSYLTRANSFERASE 2A INHIBITOR” (NANJING CHIA TAI TIANQING PHARMACEUTICAL CO., LTD., priority 2021, published 2024).

Counter-ions that a name gives are not always drawn. Some results are limits rather than exact numbers.

The test system of experiment [1] is HCT116 MTAP −/− cells. Kind of experiment: Cell testing method: HCT116 MTAP-/- cell proliferation inhibition (CellTiter-Glo, 120 h). In kind it is cell-based. The conditions noted are these: Homo sapiens, HCT-116; score by IC50 for inhibiting HCT116 MTAP−/− cells. As to the method: HCT116 MTAP −/− cells (purchased from Horizon Discovery): human colorectal cancer cell lines with MTAP gene deletion were cultured in medium RPMI 1640+10% FBS (Fetal bovine serum). On day 0 of the experiment, the live cell density of the foregoing cells in logarithmic growth phase was adjusted to 5000 cells/ml, the cells were inoculated to a 96-well plate by an amount of 100 μl/well, and a blank group was set in parallel; and the inoculated cell plate was put into a 37° C., 5% CO2 incubator for overnight culture.
On day 1 of the experiment, the overnight cultured cell plate was taken out, the supernatant was discarded, 80 μl of serum-free RPMI 1640 medium was added to each well, and place the cells in an incubator for starvation cultivation for 4 h. The compound to be tested was dissolved in DMSO (dimethyl sulfoxide) to prepare a 10 mM compound stock solution. After starvation, the cell plate was taken out, and 80 μl of RPMI 1640+20% FBS medium was added to each well; the cell plate was placed on an automatic liquid dispenser D300e (Tecan), and a dosing program was set as follows: a maximum concentration of the compound to be tested was 30 μM, the compound was diluted with DMSO by a 3 times concentration gradient, there was a total of 10 concentrations, two duplicate wells were set for each concentration, and the DMSO final concentration in each well of the 96-well plate was 0.3%, v/v. The pre-prepared 10 mM stock solution of the compound to be tested was taken out, and the above dosing program was run for dosing. After the dosing was completed, the cell plate was placed in incubator and culture for 120 h.
On day 6 of the experiment, the cell plate was taken out, 50 μl of CellTiter-Go® (purchased from Promega) was added to each well, and fluorescence signal was measured on Envision (PerkinElmer) according to operation procedures in the manual.
A dose-effect curve: log(inhibitor) vs. response-Variable slope was fitted by using GraphPad Prism 5 software to obtain an IC50 value of the compound for inhibiting cell proliferation inhibition. A formula for calculating an inhibition rate was: […]
Wherein, • Signal value of tested compound: mean fluorescence signal of cells group+medium group+compound group; • Signal value of blank group: mean fluorescence signal of medium group; • Signal value of negative control group: mean fluorescence signal of cells group+medium group.

Experiment [2] deals with T1, MAT2A enzyme (Homo sapiens, UniProt P31153).
T1 construct: purchased BPS 71401
T1 sequence (P31153 whole entry): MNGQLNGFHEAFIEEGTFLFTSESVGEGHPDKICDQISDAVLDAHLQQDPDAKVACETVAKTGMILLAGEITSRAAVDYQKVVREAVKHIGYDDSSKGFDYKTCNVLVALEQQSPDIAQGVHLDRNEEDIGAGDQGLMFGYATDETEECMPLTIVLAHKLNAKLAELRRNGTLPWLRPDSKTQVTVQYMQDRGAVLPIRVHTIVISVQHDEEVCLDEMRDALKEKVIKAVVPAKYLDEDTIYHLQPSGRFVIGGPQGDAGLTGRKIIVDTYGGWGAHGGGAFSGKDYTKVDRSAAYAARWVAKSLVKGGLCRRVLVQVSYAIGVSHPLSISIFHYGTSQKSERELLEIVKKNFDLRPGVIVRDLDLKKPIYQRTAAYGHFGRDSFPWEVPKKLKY
Briefly: Enzymatic testing method for MAT2A (Biomol Green, OD620). In kind it is biochemical. The conditions noted are these: score by IC50 for inhibiting MAT2A; read-out: MAT2A inhibition score. The protocol: • a) A 5×MAT2A test buffer (250 mM Tris-HCl, pH 8.0; 250 mM KCl; 75 mM MgCl2; 0.025% BSA; 0.05% Brij35; 1.5 mM EDTA) was first prepared and partially diluted to 1× for later use; • b) Preparation and addition of MAT2A enzyme (BPS, 71401): the MAT2A enzyme was prepared into 3.674 ng/L by using the 1×MAT2A test buffer (1.67×, final concentration 2.20 ng/L), a BioTek (MultiFlo FX) automatic liquid separator was used, 15 μL of 1.67×MAT2A enzyme solution was added to compound test wells and negative control wells respectively, and 15 μL of 1×MAT2A test buffer was added to blank control wells; • c) Preparation and addition of a compound: a compound to be tested was diluted with DMSO from 10 mM stock solution to 100 μM, a positive drug AGI-24512 was diluted under the same conditions, and the diluted compound and positive drug were automatically sprayed into each well by using a Tecan compound titrator (D300e) according to preset concentration gradients, where the spray volume was little and negligible. The concentration gradient was initially 1 μM, the dilution was implemented by ½ log, and a total of 8 gradients were set. Centrifugation at 2500 rpm for 30 s and incubation at 25° C. for 30 min were performed; • d) Preparation of ATP: 10 mM ATP (Sigma, A7699) was diluted with 1×MAT2A test buffer to 700 μM for later use; • e) Preparation and addition of a substrate and ATP mixture: 5×MAT2A test buffer, 3 μL/well; 750 μM L-methionine (Adamas, 01100469), 2.5 μL/well; 700 μM ATP, 2.5 μL/well; and double distilled water, 2 μL/well. A total amount of required mixture was prepared according to the number of test wells, and 10 μL of the mixture was added to each well by using the BioTek (MultiFlo FX) automatic liquid separator, followed by centrifugation at 2500 rpm for 30 s and reaction at 25° C. for 150 min; • f) Addition of Biomol Green detection reagent: 50 μL of Biomol Green (Enzo, BML-AK111) was added to each well by using the BioTek (MultiFlo FX) automatic liquid separator, followed by centrifugation at 2500 rpm for 30 s and incubation at 25° C. for 20 minutes; • g) After the reaction, OD620 values were read by using a Perkin Elmer (Envision 2105) multifunctional plate reader.
A formula for calculating an inhibition rate was as follows: […]
Wherein, • % Inhibition: inhibition rate % • ODsample: OD620 value in a sample well; • ODmin: representing a mean OD620 value of blank control wells without the enzyme or compound to be tested; • ODmax: representing a mean OD620 value of negative control wells with the enzyme and without the compound.
Then a dose-effect curve log(inhibitor) vs. response-Variable slope was fitted by usingGraphPad Prism 5 software to obtain an IC50 value of compound for MAT2A enzyme inhibition.

On to `Cn1nc2ccc(-c3cn4ccc(C5CC5)cc4c(-c4ccc5c(c4)OC(F)(F)O5)c3=O)cc2c1N` [Example 6, 3-(3-amino-2-methyl-2H-indazol-5-yl)-8-cyclopropyl-1-(2,2-difluoro-1,3-benzodioxol-5-yl) quinolizin-2-one hydrochloride], for which the IC50 was 150 to 400 nM in experiment [1] and less than 50 nM in experiment [2].
Regarding `CCOc1ccn2cc(-c3ccc(OC(F)F)cc3)c(=O)c(-c3ccc(OC(F)F)cc3)c2c1` [Example 4], the figures for the IC50 in experiment [1] and in experiment [2] were less than 150 nM and less than 50 nM, respectively.
In the same order, the values of `O=c1c(-c2ccc3c(c2)OCO3)cn2ccc(C3CC3)nc2c1-c1ccc2c(c1)OC(F)(F)O2` [Example 32, 7-(2H-1,3-benzodioxol-5-yl)-2-cyclopropyl-9-(2,2-difluoro-1,3-benzodioxol-5-yl)pyrido[1,2-a]pyrimidin-8-one] are less than 150 nM and less than 50 nM.
For `Cc1cn2cc(-c3ccc(OC(F)F)cc3)c(=O)c(-c3ccc(OC(F)F)cc3)c2nc1NCC(F)(F)F` [Example 42, 7,9-bis(4-(difluoromethoxy)phenyl)-3-methyl-2-((2,2,2-trifluoroethyl)amino)-8H-pyrido[1,2-a]pyrimidin-8-one], the IC50 in experiment [1] was 150 to 400 nM; in experiment [2] it was less than 50 nM.
In the same order, the values of `O=c1c(-c2ccc(OC(F)F)cc2)cn2ccc(C3CC3)cc2c1-c1ccc(OC(F)F)cc1` [Example 3, 8-cyclopropyl-1,3-bis(4-(difluoromethoxy)phenyl)-2H-quinolizin-2-one] are less than 150 nM and less than 50 nM.
Turning to `CN1C(=O)c2c3cc(-c4cn5ccc(NCC(F)(F)F)nc5c(-c5ccc(OC(F)F)cc5)c4=O)ccc3nn2CC12CC2` [Example 15, 9′-{9-[4-(difluoromethoxy)phenyl]-8-oxo-2-[(2,2,2-trifluoroethyl)amino]pyrido[1,2-a]pyrimidin-7-yl}-2′-methyl-4′H-spiro[cyclopropane-1,3′-pyrazino[1,2-b]indazol]-1′-one], the IC50 in experiment [1] is 400 to 1000 nM; in experiment [2], less than 50 nM.
Take `Cn1cc2cc(-c3cn4ccc(NCC(F)(F)F)nc4c(-c4ccc5c(c4)OC(F)(F)O5)c3=O)ccc2n1` [Example 20, 9-(2,2-difluoro-1,3-benzodioxol-5-yl)-7-(2-methyl-2H-indazol-5-yl)-2-[(2,2,2-trifluoroethyl)amino]-8H-pyrido[1,2-a]pyrimidin-8-one]: the IC50 was less than 150 nM in experiment [1] and less than 50 nM in experiment [2].
The like results for `O=C1Cn2nc3ccc(-c4cn5ccc(NCC(F)(F)F)nc5c(-c5ccc(OC(F)F)cc5)c4=O)cc3c2C2(CC2)N1` [Example 16, 9′-{9-[4-(difluoromethoxy)phenyl]-8-oxo-2-[(2,2,2-trifluoroethyl)amino]pyrido[1,2-a]pyrimidin-7-yl}-2′,4′-dihydrospiro[cyclopropane-1,1′-pyrazino[1,2-b]indazol]-3′-one] were, in that order, 400 to 1000 nM and less than 50 nM.
In the same order, the values of `Cn1cc2cc(-c3cn4ccc(NCC(F)(F)F)nc4c(-c4ccc5nn(C)cc5c4)c3=O)ccc2n1` [Example 12, 7,9-bis[(2-methyl-2H-indazol-5-yl)]-2-[(2,2,2-trifluoroethyl)amino]-8H-pyrido[1,2-a]pyrimidin-8-one] are greater than 1000 nM and less than 50 nM.
The like results for `O=c1c(-c2ccc3nn4c(c3c2)CNC2(CC2)C4)cn2ccc(C3CC3)nc2c1-c1ccc(OC(F)F)cc1` [Example 39, 2-cyclopropyl-9-(4-(difluoromethoxy)phenyl)-7-(1′,2′-dihydro-4′H-spiro[cyclopropane-1,3′-pyrazino[1,2-b]indazol]-9′-yl)-8H-pyrido[1,2-a]pyrimidin-8-one] were, in that order, less than 150 nM and less than 50 nM.
With `O=c1c(-c2ccc(OC(F)F)cc2)cn2ccc(C3CC3)nc2c1-c1ccc2c(c1)OC(F)(F)O2` [Example 27, 2-cyclopropyl-9-(2,2-difluoro-1,3-benzodioxol-5-yl)-7-[4-(difluoromethoxy)phenyl]-8H-pyrido[1,2-a]pyrimidin-8-one], the IC50 in experiment [1] is greater than 1000 nM; in experiment [2], 50 to 200 nM.
Regarding `Cc1cc(NCC(F)(F)F)nc2c(-c3ccc(OC(F)F)cc3)c(=O)c(-c3ccc(OC(F)F)cc3)cn12` [Example 41, 7,9-bis(4-(difluoromethoxy)phenyl)-4-methyl-2-((2,2,2-trifluoroethyl)amino)-8H-pyrido[1,2-a]pyrimidin-8-one], the IC50 is less than 150 nM in experiment [1] and less than 50 nM in experiment [2].
In the case of `Cn1cc2cc(-c3cn4ccc(NCC(F)(F)F)nc4c(-c4ccc(OC(F)F)cc4)c3=O)ccc2n1` [Example 9, 9-[4-(difluoromethoxy)phenyl]-7-(2-methyl-2H-indazol-5-yl)-2-[(2,2,2-trifluoroethyl)amino]-8H-pyrido[1,2-a]pyrimidin-8-one], the IC50 was less than 150 nM in experiment [1] and less than 50 nM in experiment [2].
On to `O=c1c(-c2ccc(OC(F)F)cc2)cn2ccc(OCC(F)(F)F)nc2c1-c1ccc(OC(F)F)cc1` [Example 24, 7,9-bis[4-(difluoromethoxy)phenyl]-2-(2,2,2-trifluoroethoxy)-8H-pyrido[1,2-a]pyrimidin-8-one], for which the IC50 in experiment [1] was less than 150 nM; in experiment [2], less than 50 nM.
In the same order, the values of `O=c1c(-c2ccc(OC(F)F)cc2)cn2ccc(NCC(F)(F)F)nc2c1-c1ccc(OC(F)F)cc1` [Example 10, 7,9-bis[4-(difluoromethoxy)phenyl]-2-[(2,2,2-trifluoroethyl)amino]-8H-pyrido[1,2-a]pyrimidin-8-one] are less than 150 nM and less than 50 nM.
In the same order, the values of `CN1Cc2c3cc(-c4cn5ccc(C6CC6)nc5c(-c5ccc(OC(F)F)cc5)c4=O)ccc3nn2CC12CC2` [Example 38, 2-cyclopropyl-9-(4-(difluoromethoxy)phenyl)-7-(2′-methyl-1′,2′-dihydro-4′H-spiro[cyclopropane-1,3′-pyrazino[1,2-b]indazol]-9′-yl)-8H-pyrido[1,2-a]pyrimidin-8-one] are less than 150 nM and less than 50 nM.
The like results for `Cn1nccc1-c1c2cc(-c3cn4ccc(C5CC5)cc4c(-c4ccc5c(c4)OC(F)(F)O5)c3=O)ccc2nn1C` [Example 7, 8-cyclopropyl-1-(2,2-difluoro-1,3-benzodioxol-5-yl)-3-[2-methyl-3-(2-methylpyrazol-3-yl)indazol-5-yl]quinolizin-2-one] were, in that order, 400 to 1000 nM and less than 50 nM.
Take `O=c1c(-c2ccc3c(c2)OCO3)cn2ccc(C3CC3)nc2c1-c1ccc2c(c1)OCO2` [Example 28, 7,9-bis(2H-1,3-benzodioxol-5-yl)-2-cyclopropyl-8H-pyrido[1,2-a]pyrimidin-8-one]: the IC50 was less than 150 nM in experiment [1] and less than 50 nM in experiment [2].
